Data on two compounds can be found in ChEMBL document CHEMBL2073798, “P-Glycoprotein mediates the efflux of quinidine across the blood-brain barrier” (J Pharmacol Exp Ther, 1997).

Molecules are shown by their SMILES.

Data set [1] has as its target T1, ATP-dependent translocase ABCB1 (Mus musculus, UniProt P21447). Nature of the data set: TP_TRANSPORTER: increase in brain concentration in mdr1a(-/-) mouse. Conditions: in vivo. Type of data set: functional, organism-based.
The target of data set [2] is T1, ATP-dependent translocase ABCB1. Nature of the data set: TP_TRANSPORTER: increase in Quinidine concentration in brain in FVB mouse. The data set is classed as functional, organism-based. Conditions: in vivo.

T1 sequence (P21447 whole entry): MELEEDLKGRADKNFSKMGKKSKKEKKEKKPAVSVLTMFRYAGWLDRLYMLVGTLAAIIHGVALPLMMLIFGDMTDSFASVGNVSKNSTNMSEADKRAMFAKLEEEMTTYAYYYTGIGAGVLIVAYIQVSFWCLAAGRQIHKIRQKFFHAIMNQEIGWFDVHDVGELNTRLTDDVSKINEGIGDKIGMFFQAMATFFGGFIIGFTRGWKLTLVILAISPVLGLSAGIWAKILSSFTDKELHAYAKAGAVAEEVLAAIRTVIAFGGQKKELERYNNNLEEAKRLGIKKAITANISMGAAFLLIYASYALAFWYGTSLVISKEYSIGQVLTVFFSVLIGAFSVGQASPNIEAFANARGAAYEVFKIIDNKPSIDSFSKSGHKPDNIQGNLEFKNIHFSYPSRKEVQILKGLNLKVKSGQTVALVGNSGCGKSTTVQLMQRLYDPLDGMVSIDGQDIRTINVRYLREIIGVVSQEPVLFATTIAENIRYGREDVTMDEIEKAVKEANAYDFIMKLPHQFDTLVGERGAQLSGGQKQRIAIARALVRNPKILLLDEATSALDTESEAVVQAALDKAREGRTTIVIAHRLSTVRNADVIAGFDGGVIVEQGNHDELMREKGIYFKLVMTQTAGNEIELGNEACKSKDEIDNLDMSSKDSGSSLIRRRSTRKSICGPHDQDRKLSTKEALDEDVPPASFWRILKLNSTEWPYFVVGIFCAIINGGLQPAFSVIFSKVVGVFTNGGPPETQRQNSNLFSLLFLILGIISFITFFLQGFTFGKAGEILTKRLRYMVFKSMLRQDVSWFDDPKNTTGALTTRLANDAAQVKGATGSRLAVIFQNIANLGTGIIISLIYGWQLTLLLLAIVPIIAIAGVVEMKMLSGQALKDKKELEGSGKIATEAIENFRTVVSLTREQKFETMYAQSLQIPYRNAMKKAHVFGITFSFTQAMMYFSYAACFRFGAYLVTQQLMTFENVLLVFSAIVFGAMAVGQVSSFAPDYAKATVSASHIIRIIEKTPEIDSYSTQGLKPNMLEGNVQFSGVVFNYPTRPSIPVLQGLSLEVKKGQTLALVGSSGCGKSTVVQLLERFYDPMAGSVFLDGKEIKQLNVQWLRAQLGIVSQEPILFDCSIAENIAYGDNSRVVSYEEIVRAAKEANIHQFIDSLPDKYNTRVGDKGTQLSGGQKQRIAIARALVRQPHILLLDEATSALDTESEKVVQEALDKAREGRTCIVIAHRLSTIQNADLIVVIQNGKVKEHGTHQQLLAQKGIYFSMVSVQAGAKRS

`C=C[C@H]1C[N@@]2CC[C@H]1C[C@@H]2[C@@H](O)c1ccnc2ccc(OC)cc12` [QUINIDINE]: the Activity result in data set [1] was “substrate [+]”.

The compound `C/C=C/C[C@@H](C)C(=O)[C@H]1C(=O)N[C@@H](C(C)C)C(=O)N(C)CC(=O)N(C)[C@@H](CC(C)C)C(=O)N[C@@H](C(C)C)C(=O)N(C)[C@@H](CC(C)C)C(=O)N[C@@H](C)C(=O)N[C@H](C)C(=O)N(C)[C@@H](CC(C)C)C(=O)N(C)[C@@H](CC(C)C)C(=O)N(C)[C@@H](C(C)C)C(=O)N1C` [VALSPODAR] came in with an Activity in data set [2] of 10.2 fold.
